From patent US10155769B2, “Fused azaheterocyclic compounds and their use as AMPA receptor modulators” (Janssen Pharmaceutica NV, priority 2016, dated 2018)

Molecular target: GluA1o-γ8 (Homo sapiens (Human), UniProt P42261+Q8WXS5)
Experiment: Calcium flux assay (FLIPR), inhibition of TARP γ8 dependent AMPA receptor activity
Type: cell-based
Conditions: HEK293 cells stably expressing GRIA1o-CACNG8 fusion construct; calcium flux following 15 μM glutamate; negative log of IC50 in molar
From the text: This assay was used to test compounds for their ability to inhibit TARP γ8 dependent AMPA receptor activity. The AMPA receptor is a non-selective cation channel activated by glutamate. Ionotropic glutamate receptors normally desensitize too rapidly to allow detectable calcium influx in a FLIPR assay (Strange et al. (2006). “Functional characterisation of homomeric ionotropic glutamate receptors GluR1-GluR6 in a fluorescence-based high throughput screening assay.” Comb Chem High Throughput Screen 9(2): 147-158). But, this desensitization is incomplete, and a substantial steady-state current remains in the sustained presence of glutamate (Cho et al. (2007). “Two families of TARP isoforms that have distinct effects on the kinetic properties of AMPA receptors and synaptic currents.” Neuron 55(6): 890-904).
An in vitro assay was used to determine the potency of test compounds as inhibitors of the glutamate response of the channel formed by GluA1o-γ8. To ensure a 1:1 stoichiometry of GluA1o and γ8 subunits in the expressed channel, a fusion of the cDNAs for GRIA1o and CACNG8 was used. Following Shi et al (2009) “The stoichiometry of AMPA receptors and TARPs varies by neuronal cell type.” Neuron 62(5): 633-640), the C-terminus of the cDNA for GRIA1o was fused to the N-terminus of the cDNA for γ8. The linker sequence was QQQQQQQQQQEFAT. Channels expressed with this construct appear to have similar properties to channels formed by co-expression of GRIA1o with an excess of CACNG8 (Shi et al. 2009). A clonal cell line in HEK293 cells stably expressing this construct, with a geneticin selection marker, was generated for use in this assay.
Cell expressing the GRIA1o-CACNG8 fusion construct were grown in a monolayer in 96- or 384-well microtiter plates. They were washed with assay buffer (135 mM NaCl, 4 mM KCl, 3 mM CaCl2, 1 mM MgCl2, 5 mM glucose, 10 mM HEPES, pH 7.4, 300 mOs) using a Biotek EL405 plate washer. The cells were then loaded with a calcium-sensitive dye (Calcium-5 or Calcium-6, Molecular Devices) and the test compounds at a range of concentrations. Calcium flux following the addition of 15 μM glutamate was monitored using a Molecular Devices FLIPR Tetra.
The fluorescence in each well was normalized to the fluorescence of negative and positive control wells. The negative control wells had no added compounds, and the positive control wells had been incubated with 10 μM CP465022 (a non-subtype-selective AMPA receptor antagonist) (Lazzaro et al. (2002). “Functional characterization of CP-465,022, a selective, noncompetitive AMPA receptor antagonist.” Neuropharmacology 42(2): 143-153). The responses to glutamate as functions of the test compound concentrations were fitted to a four-parameter logistic function. The fitted parameter corresponding to the midpoint was taken to be the potency of inhibition of the compound. The data in Table 4 below illustrates the observed potency for the compounds described herein. pIC50 refers to the negative log of the IC50 in molar.

GluA1o-γ8, sequence (P42261 other isoform, or with tags, fused parts or gaps): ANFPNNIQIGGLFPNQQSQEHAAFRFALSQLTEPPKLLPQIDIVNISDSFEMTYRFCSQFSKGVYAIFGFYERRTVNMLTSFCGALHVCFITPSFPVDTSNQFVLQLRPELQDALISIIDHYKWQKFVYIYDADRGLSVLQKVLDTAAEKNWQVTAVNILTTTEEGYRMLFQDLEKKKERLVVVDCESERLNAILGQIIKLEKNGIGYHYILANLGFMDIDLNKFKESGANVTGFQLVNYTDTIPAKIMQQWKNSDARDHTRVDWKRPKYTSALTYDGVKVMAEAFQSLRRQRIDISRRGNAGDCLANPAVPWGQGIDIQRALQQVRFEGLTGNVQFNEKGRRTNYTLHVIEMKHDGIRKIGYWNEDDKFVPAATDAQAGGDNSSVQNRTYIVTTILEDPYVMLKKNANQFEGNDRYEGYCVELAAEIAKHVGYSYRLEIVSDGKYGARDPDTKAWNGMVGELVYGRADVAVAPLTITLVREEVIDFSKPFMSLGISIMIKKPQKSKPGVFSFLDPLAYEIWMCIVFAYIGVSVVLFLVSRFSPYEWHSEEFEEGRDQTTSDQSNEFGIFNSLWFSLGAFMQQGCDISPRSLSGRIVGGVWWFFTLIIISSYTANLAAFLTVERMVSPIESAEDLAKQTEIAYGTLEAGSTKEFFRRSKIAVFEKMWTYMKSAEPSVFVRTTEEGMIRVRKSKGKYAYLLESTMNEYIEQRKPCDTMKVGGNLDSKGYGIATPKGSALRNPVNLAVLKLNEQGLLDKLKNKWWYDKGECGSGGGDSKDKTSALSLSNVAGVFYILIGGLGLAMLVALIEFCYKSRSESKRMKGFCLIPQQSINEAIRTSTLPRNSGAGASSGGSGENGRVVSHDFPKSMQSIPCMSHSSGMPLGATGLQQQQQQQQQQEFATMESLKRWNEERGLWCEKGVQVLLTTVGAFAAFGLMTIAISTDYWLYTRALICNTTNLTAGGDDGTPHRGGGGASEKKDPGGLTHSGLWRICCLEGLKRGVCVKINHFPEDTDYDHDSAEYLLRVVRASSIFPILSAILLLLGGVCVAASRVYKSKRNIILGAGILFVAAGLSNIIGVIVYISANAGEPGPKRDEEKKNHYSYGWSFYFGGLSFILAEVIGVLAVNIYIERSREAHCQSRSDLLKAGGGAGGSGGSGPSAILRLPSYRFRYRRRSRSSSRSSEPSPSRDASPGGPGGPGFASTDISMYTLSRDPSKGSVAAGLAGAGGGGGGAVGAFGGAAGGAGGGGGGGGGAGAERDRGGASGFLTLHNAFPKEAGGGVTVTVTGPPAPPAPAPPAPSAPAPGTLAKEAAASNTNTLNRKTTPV

SMILES	pIC50
Cc1cc(-c2c(C(F)(F)F)ccn3nc(C4CC4)nc23)cc2cn[nH]c12 [Example 31, 2-Cyclopropyl-8-(7-methyl-1H-indazol-5-yl)-7-(trifluoromethyl)-[1,2,4]triazolo[1,5-a]pyridine]	9.7
Cc1nc2c(-c3cc(Cl)c4[nH]ncc4c3)c(C(F)(F)F)ccn2n1 [Example 32, 8-(7-Chloro-1H-indazol-5-yl)-2-methyl-7-(trifluoromethyl)-[1,2,4]triazolo[1,5-a]pyridine]	8.3
Cc1nc2c(-c3cc(C)c4[nH]ncc4c3)c(C(F)(F)F)ccn2n1 [Example 33, 2-Methyl-8-(7-methyl-1H-indazol-5-yl)-7-(trifluoromethyl)-[1,2,4]triazolo[1,5-a]pyridine]	7.9
CCc1nc2c(-c3cc(Cl)c4[nH]ncc4c3)c(C(F)(F)F)ccn2n1 [Example 34, 8-(7-Chloro-1H-indazol-5-yl)-2-ethyl-7-(trifluoromethyl)-[1,2,4]triazolo[1,5-a]pyridine]	9.4
CCc1nc2c(-c3cc(C)c4[nH]ncc4c3)c(C(F)(F)F)ccn2n1 [Example 35, 2-Ethyl-8-(7-methyl-1H-indazol-5-yl)-7-(trifluoromethyl)-[1,2,4]triazolo[1,5-a]pyridine]	8.8
CCc1nc2c(-c3cc(C)c4c(c3)CC(=O)N4)c(C(F)(F)F)ccn2n1 [Example 36, 5-[2-Ethyl-7-(trifluoromethyl)-[1,2,4]triazolo[1,5-a]pyridin-8-yl]-7-methyl-indolin-2-one]	8.7
CC(C)c1nc2c(-c3cc(Cl)c4[nH]ncc4c3)c(C(F)(F)F)ccn2n1 [Example 37, 8-(7-Chloro-1H-indazol-5-yl)-2-isopropyl-7-(trifluoromethyl)-[1,2,4]triazolo[1,5-a]pyridine]	9.9
Cc1cc(-c2c(C(F)(F)F)ccn3nc(C(C)C)nc23)cc2cn[nH]c12 [Example 38, 2-Isopropyl-8-(7-methyl-1H-indazol-5-yl)-7-(trifluoromethyl)-[1,2,4]triazolo[1,5-a]pyridine]	8.7
Cc1cc(-c2c(C(F)(F)F)ccn3nc(C(C)C)nc23)cc2c1NC(=O)C2 [Example 39, 5-[2-Isopropyl-7-(trifluoromethyl)-[1,2,4]triazolo[1,5-a]pyridin-8-yl]-7-methyl-indolin-2-one]	9.2
Cc1ccn2nc(C(C)C)nc2c1-c1cc(C)c2[nH]ncc2c1 [Example 40, 2-Isopropyl-7-methyl-8-(7-methyl-1H-indazol-5-yl)-[1,2,4]triazolo[1,5-a]pyridine]	6.9
FC(F)(F)c1nc2c(-c3cc(Cl)c4[nH]ncc4c3)c(Cl)ccn2n1 [Example 41, 7-Chloro-8-(7-chloro-1H-indazol-5-yl)-2-(trifluoromethyl)-[1,2,4]triazolo[1,5-a]pyridine]	9.0
Fc1ccc(-c2ccn3nc(C(F)(F)F)nc3c2-c2cc(F)c3[nH]ncc3c2)cc1 [Example 42, 7-(4-Fluorophenyl)-8-(7-fluoro-1H-indazol-5-yl)-2-(trifluoromethyl)-[1,2,4]triazolo[1,5-a]pyridine]	9.0
Fc1ccc(-c2ccn3nc(C(F)(F)F)nc3c2-c2cc(Cl)c3[nH]ncc3c2)cc1 [Example 43, 7-(4-Fluorophenyl)-8-(7-chloro-1H-indazol-5-yl)-2-(trifluoromethyl)-[1,2,4]triazolo[1,5-a]pyridine]	11.0
Cc1cc(-c2c(-c3ccc(F)cc3)ccn3nc(C(F)(F)F)nc23)cc2cn[nH]c12 [Example 44, 7-(4-Fluorophenyl)-8-(7-methyl-1H-indazol-5-yl)-2-(trifluoromethyl)-[1,2,4]triazolo[1,5-a]pyridine]	10.5
Fc1ccc(-c2ccn3nc(C(F)(F)F)nc3c2-c2ccc3[nH]nc(F)c3c2)cc1 [Example 45, 8-(3-Fluoro-1H-indazol-5-yl)-7-(4-fluorophenyl)-2-(trifluoromethyl)-[1,2,4]triazolo[1,5-a]pyridine]	7.6
Cc1cc(-c2c(-c3ccc(F)cc3)ccn3nc(C(F)F)nc23)cc2cn[nH]c12 [Example 46, 2-(Difluoromethyl)-7-(4-fluorophenyl)-8-(7-methyl-1H-indazol-5-yl)-[1,2,4]triazolo[1,5-a]pyridine]	10.5
COCc1nc2c(-c3cc(C)c4[nH]ncc4c3)c(-c3ccc(F)cc3)ccn2n1 [Example 47, 7-(4-Fluorophenyl)-2-(methoxymethyl)-8-(7-methyl-1H-indazol-5-yl)-[1,2,4]triazolo[1,5-a]pyridine]	8.7
Cc1cc(-c2c(-c3ccc(F)cc3)ccn3nc(C4CC4)nc23)cc2cn[nH]c12 [Example 48, 2-Cyclopropyl-7-(4-fluorophenyl)-8-(7-methyl-1H-indazol-5-yl)-[1,2,4]triazolo[1,5-a]pyridine]	10.1
Cc1cc(-c2c(C(C)C)ccn3nc(C(F)(F)F)nc23)cc2cn[nH]c12 [Example 49, 7-Isopropyl-8-(7-methyl-1H-indazol-5-yl)-2-(trifluoromethyl)-[1,2,4]triazolo[1,5-a]pyridine]	10.5

Further lines, results first:

pIC50	SMILES
7.2	Cc1ccn2cc(C(F)(F)F)nc2c1-c1ccc2[nH]ncc2c1 [Example 50, 8-(1H-Indazol-5-yl)-7-methyl-2-(trifluoromethyl)imidazo[1,2-a]pyridine]
7.2	Cc1ccn2cc(C(F)(F)F)nc2c1-c1cc(F)c2c(c1)CC(=O)N2 [Example 51, 7-Fluoro-5-[7-methyl-2-(trifluoromethyl)imidazo[1,2-a]pyridin-8-yl]indolin-2-one]
8.0	Cc1ccn2cc(C(F)(F)F)nc2c1-c1cc(C)c2[nH]ncc2c1 [Example 52, 7-Methyl-8-(7-methyl-1H-indazol-5-yl)-2-(trifluoromethyl)imidazo[1,2-a]pyridine]
7.5	Cc1ccn2cc(C(C)(C)C)nc2c1-c1cc(C)c2[nH]ncc2c1 [Example 53, 2-tert-Butyl-7-methyl-8-(7-methyl-1H-indazol-5-yl)imidazo[1,2-a]pyridine]
7.1	Cc1cc(-c2c(C)ccn3cc(C(C)(C)C)nc23)cc2c1NC(=O)C2 [Example 54, 5-(2-tert-Butyl-7-methyl-imidazo[1,2-a]pyridin-8-yl)-7-methyl-indolin-2-one]
7.4	Cc1cc(-c2c(C)ccn3cc(-c4ccccc4)nc23)cc2c1NC(=O)C2 [Example 55, 7-Methyl-5-(7-methyl-2-phenyl-imidazo[1,2-a]pyridin-8-yl)indolin-2-one]
7.9	Cc1ccn2cc(-c3ccccc3)nc2c1-c1cc(C)c2[nH]ncc2c1 [Example 56, 7-Methyl-8-(7-methyl-1H-indazol-5-yl)-2-phenyl-imidazo[1,2-a]pyridine]
7.6	Cc1ccn2cc(C3CC3)nc2c1-c1cc(C)c2[nH]ncc2c1 [Example 57, 2-Cyclopropyl-7-methyl-8-(7-methyl-1H-indazol-5-yl)imidazo[1,2-a]pyridine]
7.8	COc1ccn2cc(C(F)(F)F)nc2c1-c1cc(C)c2c(c1)CC(=O)N2 [Example 58, 5-[7-Methoxy-2-(trifluoromethyl)imidazo[1,2-a]pyridin-8-yl]-7-methyl-indolin-2-one]
8.1	COc1ccn2cc(C(F)(F)F)nc2c1-c1cc(C)c2[nH]ncc2c1 [Example 59, 7-Methoxy-8-(7-methyl-1H-indazol-5-yl)-2-(trifluoromethyl)imidazo[1,2-a]pyridine]
9.0	Cc1cc(-c2c(Cl)ccn3cc(C(F)(F)F)nc23)cc2cn[nH]c12 [Example 60, 7-Chloro-8-(7-methyl-1H-indazol-5-yl)-2-(trifluoromethyl)imidazo[1,2-a]pyridine]
7.5	FC(F)(F)c1cn2ccc(C(F)(F)F)c(-c3ccc4[nH]ncc4c3)c2n1 [Example 61, 5-(2,7-Bis(trifluoromethyl)imidazo[1,2-a]pyridin-8-yl)-1H-indazole]
9.5	Cc1cc(-c2c(C(F)(F)F)ccn3cc(C(F)(F)F)nc23)cc2cn[nH]c12 [Example 62, 5-(2,7-Bis(trifluoromethyl)imidazo[1,2-a]pyridin-8-yl)-7-methyl-1H-indazole]
